Legend:
[1] = test system: CWR22-RH human prostate cancer PDXs; assay: In vivo growth of CWR22-RH xenografts in castrate NSG male mice; conditions: for CWR22-RH Tumor Growth (% inhibition +/− SD): castrate mice treated orally over a 3 week period, 10 mg/kg/d, n = 5/group; for growth inhibitor (GI) activity on CWR22-RH xenografts (SAR summary): in vivo
Excerpt: Prostate Cancer Models. The source, history, and characteristics of the human prostate cancer cell lines and PDXs used, as well as cell culture conditions for their in vitro maintenance and the in vivo protocol for xenograft growth in triple immune-deficient NSG (i.e. NOD.Cg-PrkdcScidIl2rgtmlWji/Szj), adult (>8 week old) male mice obtained from the Sidney Kimmel Comprehensive Cancer Center (SKCCC) Animal Core Facility are described previously (Isaacs 2013; Brennen et al. JCI Insight. 2021, 6(8):e146827; Zhu et al. Oncogene 2020, 39(45): 6935-6949). Similar information concerning the TRAMP-C2 and B6CaP mouse prostate cancers originating in a C57BL/6J male mice are described previously (Foster et al. Cancer Res. 1997, 57: 3325-3330; Simons et al. Oncotarget. 2019, 10(64):6845-6854). In vitro growth curves were determined as described (Isaacs 2013). In vivo growth response to oral daily TasQ (10 mg/kg/d) of TRAMP-C2 mouse prostate cancers was evaluated in C57BL/6J syngeneic wild type vs. NOX-2 vs. iNOS null male mice obtained from Jackson Laboratory (Bar Harbor, ME). Growth response to oral daily TasQ (10 mg/kg/d) of TRAMP-C2 and B6CaP mouse prostate cancers was also evaluated in S100A9 null C57BL′6J male mice obtained from Dmitry Gabrilovich (Wistar Institute). All lines were mycoplasma negative using the MycoSensor PCR Assay kit (Agilent Technologies) and genetically authenticated within the last 6 months using short tandem repeat profiling conducted by the Johns Hopkins Genetic Resource Core Facility. In vitro growth curves were determined as described (Isaacs 2013). Growth response to daily oral TasQ vs. ESATA-20 (both at 10 mg/kg/d) of Myc-CaP-CR mouse prostate cancer was evaluated in syngeneic FVB/NJ castrate male mice from Jackson Laboratory. Animal studies were conducted according to animal protocols approved by Johns Hopkins Animal Care and Use Committee. Tumor volume measurements were as described previously (id.). In vivo experiments were repeated multiple independent times for each model used with 3-5 mice per treatment grouping.
(§1) Oral Drug treatment. TasQ at the indicated dose was initially dissolved with equal molar 1 N sodium hydroxide. This solution was diluted with sterile water and the mixture stirred for 1 hr. The pH was then adjusted with 1 N HCl to 8.9 and 200 μL given daily via oral gavage.
Due to these combined effects, maximal growth inhibition of CWR22-RH, a castration-resistant prostate cancer patient-derived xenograft (PDX), is obtained as maintenance therapy with oral daily dosing of ≥5 mg/kg/d (FIG. 1). […] Previous studies documented that in vitro treatment of human prostate cancer cells (LNCaP) with 1-10 μM TasQ rapidly (i.e., ≤1 day) induces the transcription of a series of AHR target genes (e.g., Cyp1a1, Cyp1b1, AHRR, TPARP, GDF15) (Olsson 2010). […]

[2] = biological target: T1, Human Aryl Hydrocarbon Receptor (AHR) (Homo sapiens, UniProt P35869); assay: Human AHR reporter assay (cell-based  luciferase reporter gene assay); conditions: n = 4 independent assays/analog; read-out: AHR Agonist Response [EC50] (nM +/−SD)
T1 construct: purchased Indigo Biosciences IB06001
T1 sequence (P35869 11-848): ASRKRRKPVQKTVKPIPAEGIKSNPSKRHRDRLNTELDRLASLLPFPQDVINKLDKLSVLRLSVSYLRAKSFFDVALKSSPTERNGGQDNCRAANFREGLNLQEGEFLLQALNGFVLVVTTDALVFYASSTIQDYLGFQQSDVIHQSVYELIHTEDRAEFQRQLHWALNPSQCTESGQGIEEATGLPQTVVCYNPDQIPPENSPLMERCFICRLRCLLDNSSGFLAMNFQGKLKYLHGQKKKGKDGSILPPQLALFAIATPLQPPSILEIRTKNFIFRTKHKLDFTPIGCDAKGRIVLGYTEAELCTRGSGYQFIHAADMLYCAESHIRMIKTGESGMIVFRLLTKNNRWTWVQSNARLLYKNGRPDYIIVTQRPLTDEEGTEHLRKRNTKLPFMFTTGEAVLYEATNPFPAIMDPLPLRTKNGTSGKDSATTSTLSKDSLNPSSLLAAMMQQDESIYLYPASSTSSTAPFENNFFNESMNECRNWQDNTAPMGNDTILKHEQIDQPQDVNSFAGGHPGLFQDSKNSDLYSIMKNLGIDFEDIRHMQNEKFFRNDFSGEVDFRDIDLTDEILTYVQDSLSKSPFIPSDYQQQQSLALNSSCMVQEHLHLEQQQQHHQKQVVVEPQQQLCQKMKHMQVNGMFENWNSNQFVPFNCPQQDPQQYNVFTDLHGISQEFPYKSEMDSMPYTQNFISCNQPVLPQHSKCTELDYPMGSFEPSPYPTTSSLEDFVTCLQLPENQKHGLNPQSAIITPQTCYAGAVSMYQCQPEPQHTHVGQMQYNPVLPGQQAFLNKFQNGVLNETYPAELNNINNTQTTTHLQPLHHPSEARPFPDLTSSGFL

thymus = assay: AHR agonist induced thymus regression in FVB male mice; format: in vivo, mouse
Procedure: To evaluate AHR agonist induced thymus regression, groups of five 4-week old FVB male mice from Jackson Laboratory were treated with either vehicle, Linomide, TasQ, or its analogs daily by orally gavage for 2 weeks and then the thymus removed and weighted.
as §1
This means that in the clinical setting, dose-escalation above 1 mg/d of TasQ as needed to reach this >2 μM blood level for optimal anti-cancer efficacy will also enhance unwanted off-target AHR induction. Therefore, a medicinal chemical approach was undertaken to identify third generation quinoline-3-carboxamide analogs with increased HDAC4 inhibition, but with reduced AHR agonism. The approach taken is based upon the earlier SPR analysis documenting that TasQ linked to the surface chip via its aniline-N is a potent binder of HDAC4. Thus, a series of quinoline-3-carboxamide analogs were synthesized focusing upon adduct changes at the aniline-N. These analogs were synthesized as described in Example 1, and were initially screened for their AHR agonist activity using the in vitro human cell-based ARE-driven luciferase reporter gene assay (Table 3).

[3] = test system: LvCaP-3 human prostate cancer PDXs; assay: In vivo growth of LvCaP-3 xenografts in castrate hosts; conditions: daily oral 10 mg/kg
Excerpt: Prostate Cancer Models. The source, history, and characteristics of the human prostate cancer cell lines and PDXs used, as well as cell culture conditions for their in vitro maintenance and the in vivo protocol for xenograft growth in triple immune-deficient NSG (i.e. NOD.Cg-PrkdcScidIl2rgtmlWji/Szj), adult (>8 week old) male mice obtained from the Sidney Kimmel Comprehensive Cancer Center (SKCCC) Animal Core Facility are described previously (Isaacs 2013; Brennen et al. JCI Insight. 2021, 6(8):e146827; Zhu et al. Oncogene 2020, 39(45): 6935-6949). […] In vitro growth curves were determined as described (Isaacs 2013). In vivo growth response to oral daily TasQ (10 mg/kg/d) of TRAMP-C2 mouse prostate cancers was evaluated in C57BL/6J syngeneic wild type vs. NOX-2 vs. iNOS null male mice obtained from Jackson Laboratory (Bar Harbor, ME). Growth response to oral daily TasQ (10 mg/kg/d) of TRAMP-C2 and B6CaP mouse prostate cancers was also evaluated in S100A9 null C57BL′6J male mice obtained from Dmitry Gabrilovich (Wistar Institute). […] In vitro growth curves were determined as described (Isaacs 2013). Growth response to daily oral TasQ vs. ESATA-20 (both at 10 mg/kg/d) of Myc-CaP-CR mouse prostate cancer was evaluated in syngeneic FVB/NJ castrate male mice from Jackson Laboratory. […]

fl-HDAC4 (wild-type) = biological target: T2, fl-HDAC4 (wild-type) (Homo sapiens, UniProt P56524); assay: SPR binding analysis TasQ / fl-HDAC4; conditions: compound at >30 μM in solution, Zn2+ present
T2 construct: Full-length (fl) [A.A. 1-1082] recombinant human histone deacetylase 4 (rhHDAC4) protein; FLAG (N); GST (given as 'with or without'); made in house; host or cells: HEK293-T
Procedure: Surface Plasmon Resonance (SPR) Binding Analysis. SPR analysis was performed on the Biacore 3000™ system using CM5 sensor chips, certified buffers (HBS-P—10 mM HEPES, 0.15 M NaCl, pH 7.4, containing 0.005% v/v Surfactant P; HBS-EP-HBS-P with 3 mM EDTA) and reagents for immobilization and surface regeneration from Biacore, GE Healthcare, Uppsala Sweden. Evaluation of sensorgrams was performed using the BIA-evaluation Software version 4.1 and GraphPad Prism 4. Buffer of protein reagents were changed to HBS-P on Zeba spin desalting columns (Thermo Scientific) prior to being used in SPR analysis (Isaacs 2013).
A. Binding of wild-type and mutant forms of HDAC4 to immobilized TasQ. TasQ (ABR-215050; mol wt 406.4) was dissolved as a 40 mM solution in water with 1.5 equivalents of NaOH. TasQ with an amino-linker [i.e. —(CH2)2O(CH2)2—NH2](ABR-225180) in amide nitrogen position was used for amine coupling on to a Biacore CM5 sensor chip. A 1 mg/mL solution of ABR-225180 in HBS-P buffer was prepared and immobilized on a CM5 chip by injection at a flow rate of 5 or 10 μL/min until a stable response level was reached. Interaction of various HDAC4 forms with immobilized TasQ was studied by injection over this surface in HBS-P buffer containing 10 or 20 μM ZnCl2. Bound HDAC4 was removed by a pulse of 3 mM EDTA in HBS-P or 0.5 to 6.25 mM NaOH in water. In a second series of experiments, the ability of TasQ in solution to displace this binding was studied by pre-incubation of HDAC4 with TasQ as competitor.
B. Binding of TasQ to immobilized HDAC4 and NCoR1. Different variants of HDAC4 (full-length wild-type and mutant forms and the truncated protein) and full-length NCoR1 were immobilized on a CM5 chip using random amine coupling. Briefly, proteins were dissolved in 10 mM sodium acetate buffer at pH 5.0 or 5.5 and immobilized to the aimed level using the standard protocol from GE Healthcare. Serially diluted TasQ in HBS-P buffer with 10 or 20 μM Zn was injected (for 2 or 3 min at a flow rate of 30 μl/min) either directly or after a 1st injection of 1 mM DTT to reduce cysteines in the zinc conformation site in HDAC4. Regeneration was made with a short pulse of HBS-EP.
To evaluate the conformational requirements for TasQ's binding to HDAC4, surface plasmon resonance (SPR) analysis was utilized. To maximize conformational flexibility, TasQ is immobilized onto the surface of a Biacore CM5 sensor chip via an amino-linker [i.e. —(CH2)2—O—(CH2)2—NH2] in its amide nitrogen position.
By comparison, Linomide even at >30 μM in solution binds only 10-15% of the immobilized fl-HDAC4 protein despite the presence of Zn^+2 (FIG. 14). […] The fact that the KD for binding of soluble TasQ to immobilized fl-HDAC4 is higher than the KD for binding of soluble fl-HDAC4 with immobilized TasQ is predictable. This is because the conformational dynamics of fl-HDAC4 protein immobilized on the chip are more restrictive due to the multiple random amine coupling than the conformational dynamics of TasQ immobilized via a single amino-linker.
To address this possibility, a competitive binding assay was developed based upon the ability of TasQ in solution to compete with immobilized TasQ on the SPR-chip for binding to fl-HDAC4.

mCRPC patients = conditions: human, in vivo; cited from earlier work

T2 sequence (P56524 whole entry): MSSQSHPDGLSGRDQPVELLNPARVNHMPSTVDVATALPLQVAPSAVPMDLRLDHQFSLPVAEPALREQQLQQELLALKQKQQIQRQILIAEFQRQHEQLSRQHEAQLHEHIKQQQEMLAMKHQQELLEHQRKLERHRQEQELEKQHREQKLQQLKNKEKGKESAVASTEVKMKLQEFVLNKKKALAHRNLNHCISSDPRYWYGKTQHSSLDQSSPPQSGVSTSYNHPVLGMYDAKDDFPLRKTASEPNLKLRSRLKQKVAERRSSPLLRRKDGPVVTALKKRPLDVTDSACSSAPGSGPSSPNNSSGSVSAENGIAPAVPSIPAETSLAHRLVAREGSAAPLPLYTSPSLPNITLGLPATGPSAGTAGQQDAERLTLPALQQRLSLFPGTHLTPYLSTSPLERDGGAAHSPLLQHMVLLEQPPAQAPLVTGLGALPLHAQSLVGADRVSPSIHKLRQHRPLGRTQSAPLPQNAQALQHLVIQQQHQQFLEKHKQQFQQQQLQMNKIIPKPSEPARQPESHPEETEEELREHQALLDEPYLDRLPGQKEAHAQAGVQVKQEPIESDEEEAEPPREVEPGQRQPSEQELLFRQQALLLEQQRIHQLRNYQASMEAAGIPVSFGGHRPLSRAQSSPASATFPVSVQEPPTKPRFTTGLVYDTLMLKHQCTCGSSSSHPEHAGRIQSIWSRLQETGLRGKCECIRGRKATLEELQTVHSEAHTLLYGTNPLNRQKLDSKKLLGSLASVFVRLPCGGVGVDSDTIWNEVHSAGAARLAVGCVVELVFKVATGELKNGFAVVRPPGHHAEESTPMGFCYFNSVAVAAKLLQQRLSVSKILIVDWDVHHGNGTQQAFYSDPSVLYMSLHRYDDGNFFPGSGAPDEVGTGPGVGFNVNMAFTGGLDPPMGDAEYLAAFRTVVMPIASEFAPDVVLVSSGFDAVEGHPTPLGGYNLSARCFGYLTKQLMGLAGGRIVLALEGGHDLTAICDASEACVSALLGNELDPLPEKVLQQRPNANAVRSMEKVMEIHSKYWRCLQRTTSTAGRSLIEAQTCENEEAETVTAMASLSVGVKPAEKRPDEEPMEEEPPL

| EC50 [2] | SMILES | CWR22-RH Tumor Growth (% inhibition +/− SD) [1] | growth inhibitor (GI) activity on CWR22-RH xenografts (SAR summary) [1] | further results |
| --- | --- | --- | --- | --- |
| 10500 nM | CCOc1c(C(=O)N(c2ccc(C(F)(F)F)cc2)C2CCCCC2)c(=O)n(C)c2cccc(OC)c12 [ESATA-25] | <10% | no GI activity |  |
| > 100000 nM | COC(=O)c1c(O)c2c(OC)cccc2n(C)c1=O [ESATA-2] |  | no GI activity |  |
| 300 nM | COc1cccc2c1CC(C(=O)N(C)c1ccc(C(F)(F)F)cc1)C(=O)N2C (stereo not shown) [ESATA-5] |  |  |  |
| > 50000 nM | C[C@]12CC[C@H](O)CC1=CC[C@@H]1[C@@H]2CC[C@]2(C)C(c3cccnc3)=CC[C@@H]12 [Abiraterone] | <10% |  |  |
| 10700 nM | COc1cccc2c1c(O)c(C(=O)N(Cc1ccccc1)c1ccc(C(F)(F)F)cc1)c(=O)n2C [ESATA-18] | 50 +/− 18% |  |  |
| 850 nM | COc1cccc2c1c(O)c(C(=O)N(c1ccccc1)C(C)C)c(=O)n2C [ESATA-27] | <10% |  |  |
|  | c1ccc2c(c1)cc1ccc3cccc4ccc2c1c34 [Benzo[α]pyrene, benzo[a]pyrene] | <10% |  | thymus weight (thymus; 10 mg/kg/d oral for 14 days): 27 ± 8 mg; Thymus Regression (% decrease weight +/− SD) (thymus; mice treated orally for 2 weeks, 10 mg/kg/d, n = 5/group): 51 +/− 7%; inhibition of growth of LvCaP-3 xenografts at the end of study [3]: completely lacks therapeutic efficacy |
| 1400 nM | COc1cccc2c1c(O)c(C(=O)N(c1ccc(C(F)(F)F)cc1)C(C)C)c(=O)n2C [ESATA-30] | <10% | no GI activity |  |
| > 50000 nM | COc1cccc2c1c(OCCNC(=O)OC(C)(C)C)c(C(=O)N(c1ccc(C(F)(F)F)cc1)C1CCCCC1)c(=O)n2C [ESATA-26] | <10% | no GI activity |  |
| 1300 nM | COc1cccc2c1c(O)c(C(=O)N(c1ccccc1)C1CCCCC1)c(=O)n2C [ESATA-28] | <10% |  |  |
| 800 nM | COc1cccc2c1c(O)c(C(=O)N/N=C/c1ccc(C(F)(F)F)cc1)c(=O)n2C [ESATA-24] |  |  |  |
| 1100 nM | COc1cccc2c1c(O)c(C(=O)N(CCOCc1ccccc1)c1ccc(C(F)(F)F)cc1)c(=O)n2C [ESATA-14] | <10% | no GI activity |  |
| 50 nM | CCCCCCCN(C(=O)c1c(O)c2c(OC)cccc2n(C)c1=O)c1ccc(C(F)(F)F)cc1 [ESATA-11] |  |  |  |
| 0.5 nM | COc1cccc2c1c(O)c(C(=O)Nc1ccc(C(F)(F)F)cc1)c(=O)n2C [ESATA-4] | 86 +/− 9% | high GI activity |  |
|  | CN(C(=O)c1c(O)c2ccccc2n(C)c1=O)c1ccccc1 [Linomide, roquinimex] |  |  | fraction of the immobilized fl-HDAC4 protein bound (fl-HDAC4 (wild-type)): 10-15%; adverse events in Phase III clinical trials (mCRPC patients): several cases of pericarditis and neuropathy |
| 12000 nM | COc1cccc2c1c(O)c(C(=O)N(c1ccc(C(F)(F)F)cc1)C1CCC(C(F)(F)F)CC1)c(=O)n2C (stereo not shown) [ESATA-22] | <10% | no GI activity |  |

From US20250059139A1, “COMPOUNDS FOR TREATMENT OF CANCER” (THE JOHNS HOPKINS UNIVERSITY, priority 2021, published 2025)
